Here are results for six compounds from patent publication US20120295346A1, “METHODS AND COMPOSITIONS FOR MODULATING MEMBRANE POTENTIAL TO INFLUENCE CELL BEHAVIOR” (Tufts University, priority 2009, published 2012).

Series [1] deals with Xenopus embryos. Put plainly: Ivermectin-induced hyper-pigmentation with blockers of voltage sensitive pathways. It counts as in vivo. The following applies: for effect on ivermectin-induced hyper-pigmentation: with 10 μM ivermectin, 0.1 mM cadmium chloride, 0.1 mM verapamil, 50 mM lindane, 20 mM fluoxetine. As to the method:
We next sought to examine how changes in membrane voltage are translated into downstream signaling. In order to determine the signaling molecules responding to ivermectin induced depolarization, we examined three known voltage sensitive pathways: calcium, serotonin, and gap junctions. We capitalized on the existence of drugs known to block each of these pathways to determine if any were downstream of ivermectin signaling.
Embryos were exposed to 10 μM ivermectin from stage 10 throughout development. […] The following methods were used in conducting the experiments detailed above.
(§1) Stocks of ivermectin (sigma) were kept at 10 mM concentration in DMSO. Embryo exposure occurred at a 1:1000 dilution (10 μM) in MMR for the stages indicated in each experiment. […] Stocks of strychnine were kept at 1 g in 6 ml of water; embryos were treated with 100 μl of stock in 10 ml of MMR. Drugs and media were replaced every 48 hours.

The test system of series [2] is Xenopus embryos. Nature of the series: Drug exposure of Xenopus embryos, hyper-pigmentation phenotype.
From the text: Ivermectin is known to open vertebrate GlyCl channels, resulting in chloride flux through the membrane (Schonrock, B., and Bormann, J. (1993) Naunyn Schmiedebergs Arch Pharmacol 348, 628-632; Shan, Q., Haddrill, J. L., and Lynch, J. W. (2001) J Biol Chem 276, 12556-12564.).
Xenopus embryos were collected according to standard protocols (Sive, Grainger et al. 2000) in 0.1× Modified Marc's Ringers (MMR) pH 7.8+0.1% Gentamycin. Xenopus embryos were staged according to Nieuwkoop and Faber 1967.
as §1

Series [3] concerns human epidermal melanocytes. Put plainly: Human melanocyte culture in high potassium media, proliferation and dendrite analysis. It counts as cell-based. The text has this:
After finding that Xenopus melanocytes responded to modulations in membrane potential, we examined human epidermal melanocytes to assess the impact of membrane depolarization on cell phenotype. For these studies, ivermectin could not be used to depolarize the membrane because the culture medium used to maintain the cells has a much higher chloride ion concentration then that observed intracellularly in these particular cells. Thus, membrane potential was modulated by raising the extracellular potassium concentration by addition of potassium gluconate to the media.
Following two days of culture in 50 mM potassium gluconate supplemented media, human melanocytes developed a highly […] morphology, with a number of cells showing five or more such projections (compare FIGS. 6a and b). […] To verify that melanocytes grown in high potassium medium were in fact depolarized we made use of membrane voltage imaging using CC2-DMPE and DiBAC4 dyes, which allow visualization of the membrane potential (FIG. 6, d and e).
Human melanocytes were obtained commercially and cultured in DermaLife M Melanocyte culture medium (Lifeline Cell Technology, Walkersville, Md.). Cells were maintained within standard 50 ml culture flasks (BD Bioscience, San Jose, Calif.), and were fed with 10 ml warm media every other day. Upon reaching confluence, melanocytes were passaged using a standard trypsonization protocol, and new colonies were seeded at approximately 5,000 cells per cm^2.
For dendrite analysis, cells were imaged on a Nikon AZ100M stereo microscope and the numbers of dendrites on all cells within the field of vision were counted. Cell culture in high potassium media was repeated three times, and the results averaged for statistical analysis.

Series [4] relates to human melanocytes. Put plainly: Imaging membrane voltage using CC2-DMPE and DiBAC4(3). Type of series: cell-based. The following applies: high potassium media, CC2-DMPE and DiBAC4 dyes. How it is done: CC2-DMPE (N-(6-chloro-7-hydroxycoumarin-3-carbonyl)-dimyristoylphosphatidyl ethanolamine), a coumarin phospholipid, and DiBAC4(3) (bis-(1,3-dibutylbarbituric acid) trimethine oxonol) were purchased from Invitrogen. Stock CC2-DMPE solution was prepared according to manufacturer directions; briefly, a 5 mM stock (in DMSO) was prepared, aliquoted, and stored at −20° C. until immediately before use. DiBAC4(3) stock (1.9 mM in DMSO) was prepared and stored at room temperature. CC2-DMPE stock was dissolved 1:1000 directly into DMEM. DiBAC4(3) stock was dissolved 1:2 in DMSO, then spun at rcf 20,800 for 10 minutes to remove undissolved particles of dye. Supernate was then diluted 1:4000 in DMEM. 1 mL of CC2-DMPE is added to cells grown in 35 mm FluoroDish Sterile Culture Dishes. Cells are incubated for 30 minutes, then washed twice with plain DMEM. 1-2 mLs of DiBAC4(3) are then added to the dish. Cells are incubated at least 30 minutes before imaging begins; cells are imaged while in the DiBAC4(3) bath. A round coverslip is dropped into the dish, and any medium outside the well is removed. […]
An Olympus BX-61 equipped with a Hamamatsu ORCA AG CCD camera, and controlled by IPLabs, was used for imaging. […] No calibration was performed; nonetheless, pixel intensity within and among images can be compared for relative quantification. […]

In series [5] the test system is melanocytes. Nature of the series: Melanocyte counts in ivermectin-exposed Xenopus embryos. Type of series: in vivo. As to the method: We examined whether there is a critical period of ivermectin exposure required for hyperpigmentation. […] One set of animals was exposed to 10 μM ivermectin from stages 10-24 (gastrulation through the completion of neurulation), while the second set were exposed from stages 28-46 (tailbud through tadpole). Early exposed embryos were washed 3× in 0.5×MMR post exposure and transferred to a new dish to remove all drug from the environment.
In order to evaluate the number of melanocytes between treatments, early vs. late exposed embryos were anesthetized in tricane, and then photographed. We then counted the number of melanocytes within the eye region (FIG. 2A, B), and compared each treatment to age-matched control siblings. […] In comparison, embryos exposed to ivermectin during gastrulation and neurogenesis, the time when a subset of neural crest cells become fated to differentiate along a melanocyte fate, show a 1.5 fold increase in melanocyte number compared to controls (FIG. 2C).
Melanocytes were counted by cellAnalyst software (AssaySoft, Inc) on digital photographs of anesthetized larvae. Adobe Illustrator (Adobe Systems Inc) was used to define the dorsal region between the eyes used for counting. Tail regions were defined using digital photographs, starting at the most posterior tip of the tail and counting all melanocytes within a 400 pixel square bounding box extending anteriorly.

Series [6] relates to Xenopus embryos. Nature of the series: Ivermectin exposure in MMR with varying levels of chloride. It counts as in vivo. The following applies: for % hyper-pigmented / Hyper-pigmented (number of embryos) / Normal pigmentation (number of embryos): 10 μM ivermectin from stage 10. How it is done:
We next sought to determine whether the alteration of melanocyte behavior was due to GlyCl-dependent changes in transmembrane potential. The intracellular concentration of chloride in an embryo is approximately 60 mM while the extracellular concentration of Modified Marc's Ringers (MMR), the solution in which the embryos are maintained, is 10 mM. If ivermectin constitutively opens chloride channels, ivermectin treatment would be expected to cause an efflux of Cl^− ions, thus resulting in depolarization of the cell membrane. Conversely, if the concentration of external chloride were raised above intracellular levels, chloride ions would enter cells following treatment with ivermectin, thus maintaining a hyperpolarized membrane potential. To test this hypothesis, we raised the concentration of chloride in the extracellular MMR media to 30 mM, 60 mM, or 90 mM and examined the resulting phenotype following ivermectin exposure.
Embryos were exposed to the chloride activator ivermectin (10 μM) from stage 10 throughout development in MMR containing varying levels of chloride.
as §1

Setting [7] is: ivermectin from gastrulation throughout development.
Where [8] appears, read: older tadpoles (beyond stage 46) exposed to ivermectin.
Setting [9] is: 10 μM ivermectin from stage 10 throughout development, second drug concurrently.

“Also recorded” adds a separate entry of the source.

As to `[Cl][Cd][Cl]` [cadmium chloride], the “effect on ivermectin-induced hyper-pigmentation” value in series [1] is recorded as “did not result in any reduction; also recorded: did not inhibit hyper-pigmentation”.
For the compound `CNCCC(Oc1ccc(C(F)(F)F)cc1)c1ccccc1` (stereo not shown) [fluoxetine], in series [1], the “effect on ivermectin-induced hyper-pigmentation” value is “blocked ivermectin-induced hyper-pigmentation in all of the treated embryos; also recorded: completely inhibited”.
On to `NCC(=O)O` [glycine], for which, in series [2] (3 mM glycine, exposure throughout development), the hyper-pigmentation phenotype result is listed as “induced the same hyperpigmented phenotype as ivermectin; also recorded: induces hyper-pigmentation at a similar level to ivermectin exposure”.
Take `Cl[C@H]1[C@H](Cl)[C@@H](Cl)[C@@H](Cl)[C@H](Cl)[C@H]1Cl` [lindane]: the “effect on ivermectin-induced hyper-pigmentation” value is “did not result in any reduction” in series [1] and “did not inhibit hyper-pigmentation” in series [1] (listed as lindine).
Regarding `O=C([O-])[C@H](O)[C@@H](O)[C@H](O)[C@H](O)CO.[K+]` [potassium gluconate], the “effect on growth in potassium dose response screen” value in series [3] (40 mM potassium gluconate) is recorded as “non-inhibitory to growth”. Moreover, in series [3] (50 mM potassium gluconate supplemented media), the “cell proliferation, standard vs high potassium media” value was “No measurable differences in cell proliferation”. The “dendricity / number of projections of melanocytes” value in series [3] (50 mM potassium gluconate supplemented media, two days of culture) was “significant effect on the number of projections; also recorded: significant effect of potassium gluconate on dendricity”. Besides, the “membrane potential of treated cells compared to controls” value in series [4] is “depolarization”.
In the case of ivermectin, in series [2] (setting [7]), the “melanocyte morphology compared to wild type siblings” value is given as “take on a dendritic morphology”. Besides, in series [2] (setting [7]), the “other disruptions of normal development” value is given as “not accompanied by any other observable disruptions of normal development”. Further, the “treated embryos/larvae developing hyper-pigmentation” value in series [2] (setting [7]) amounted to 98%. Moreover, the “increase in melanocyte number in eye field relative to controls” value in series [5] (10 μM ivermectin, early exposure stages 10-24) was 1.5 fold. The “melanocyte number in eye field relative to controls” value in series [5] (10 μM ivermectin, late exposure stages 28-46, at stage 46) is reported as “do not show a significant increase; also recorded: no detectible difference”. For the same compound, the “increase in melanocyte counts in the tip of the tail” value in series [5] (ivermectin throughout development) was 1.5 fold. The “generation of more melanocytes” value in series [5] (setting [8]) was “do not appear to generate more melanocytes”. Further, in series [5] (setting [8]), the “time to expansion of pigment cells” value is not above 24 h. The “% hyper-pigmented” value in series [6] (10 mM Cl−) was determined as 100%; in series [6] (30 mM Cl−), 95.8%; in series [6] (60 mM Cl−), 21.7%; in series [6] (90 mM Cl−), 0%; in series [1] (setting [9]), 95.3%. Moreover, the “Hyper-pigmented (number of embryos)” value in series [6] (10 mM Cl−) turned out to be 25; in series [6] (30 mM Cl−), 23; in series [6] (60 mM Cl−), 5; in series [6] (90 mM Cl−) it was 0. Besides, the “Normal pigmentation (number of embryos)” value in series [6] (10 mM Cl−) stood at 0; in series [6] (30 mM Cl−), 1; in series [6] (60 mM Cl−), 18; in series [6] (90 mM Cl−), 32. Further, the “ivermectin hyper-pigmentation phenotype in words” value in series [6] (extracellular chloride 10 mM) is given as “strong hyper-pigmentation”; in series [6] (extracellular chloride 30 mM), “did not inhibit hyper-pigmentation; also recorded: strong hyper-pigmentation”; in series [6] (extracellular chloride 60 mM), “suppressed; also recorded: partial inhibition”; in series [6] (extracellular chloride 90 mM) it was “completely inhibited; also recorded: complete inhibition”. For the same compound, the “incidence of hyper-pigmentation in words” value in series [1] (10 μM ivermectin alone) is given as “strong incidence of hyper-pigmentation”. Besides, the “Hyper-pigmented tadpoles (number)” value in series [1] (setting [9]) turned out to be 61. Also, in series [1] (setting [9]), the “WT tadpoles (number)” value came to 3.
